Measurements published in patent US5360796A, “Imidazo[1,2-a]pyridinylalkyl phosphonic acid compounds for treatment of neurotoxic injury” (G. D. Searle & Co., priority 1991, dated 1994).

Experiments:
[1] = target: TCP (1-[1-(2-thienyl)cyclohexyl]piperidine) binding; experiment: TCP Modulation Assay; design: species or system rat; conditions: 2 nM tritiated TCP, 0.05 mM L-glutamate, rat brain SPM, pH 7.4, 25° C., 60 min; read-out: TCP Ki IC50
Procedure: The effect on the TCP (1-[1-(2-thienyl)cyclohexyl]piperidine) binding was measured in rat brain synaptic membranes (SPM) prepared as previously described [J. B. Monahah & J. Michel; J. Neurochem. […] Prior to their use in the binding assay, frozen SPM were thawed, diluted twenty fold with 50 mM Tris/acetate (pH 7.4 containing 0.04% (v/v) Triton X-100), incubated for 30 min. at 37° C. and centrifuged at 95,000 xg for 15 min. The Triton X-100 treated SPM were washed with 5 mM Tris/HCl, pH 7.4 and centrifuged a total of six times. […] The samples were filtered through glass fiber filters (Schleicher & Schuell #32) which have been pretreated with 0.05% (v/v) polyethylenimine, washed 4 times with 2 ml of ice-cold 5 mM Tris/HCl buffer, and then counted on a Beckman LS 5800 liquid scintillation counter with automatic corrections for quenching and counting efficiency. Inhibition of TCP binding was measured as a decrease in the binding in the presence of 0.05 mM L-glutamate. Non-specific binding was defined as the residual binding in the presence of […] phencyclidine.

[2] = system: CA1 region of the hippocampus; experiment: Forebrain Ischemia Assay; assay type: in vivo, Mongolian gerbil; conditions: for # of Neurons/Field: 7 days after 4-5 min carotid occlusion
Procedure: This assay was used to determine the extent of protection afforded by compound of the invention to neural brain cells subjected to ischemic conditions. Male Mongolian gerbils, 50-70 gm, were used as subjects. Compound No. 7 (30 mg/kg) was injected j.p. 30 minutes prior to carotid occlusion into 6 gerbils […]. In preparation for surgical procedures, the animals were lightly anesthetized with methoxyflurane and placed upside down on a heated pad with their snout within a nosecone. A 70:30 mixture of nitrous oxide and oxygen containing 0.5% halothane was circulated through the nosecone to provide continuous anesthesia throughout the surgical procedure. A midline incision was made in the neck and the carotid arteries were exposed. A length of suture thread was placed under each carotid. The thread was then tightened around each carotid and pressure applied to the thread to insure flow was occluded. Flow was occluded for 4-5 minutes and then the thread was removed. The carotids were visually inspected to confirm that reflow had occurred. The wound was then closed with autoclips and the gerbils allowed to recover. Following surgery, the gerbils were kept alive for 7 days. They were anesthetized with 100 mg/kg sodium pentobarbital and perfused transcardially with saline (with heparin) followed by buffered formalin. The brain was removed, trimmed and prepared for histological processing. Sections (10 microns) were stained with thionin. […] Quantification of the resulting lesion is made by counting the pyramidal cell somata in a 0.5 mm length of CAl of the hippocampus on the section corresponding to P 1.7 mm in the gerbil brain atlas.
Normal cell count in this region of the hippocampus in unoperated gerbils is 146±2. The effects of compound of Ex. #7 were assessed by comparing the number of neural cells found in the hippocampus of subjects treated with Ex. #7 compound with the cell number found in the appropriate control groups. […]

[3] = Motor impairment, inverted screen test
Procedure: Naive male CD-1 mice (20-30 grams body weight) from Charles River Laboratories, Portage Mich. served as subjects. The mice had ad libitum access to food and water prior to testing and were maintained on a 12 hour light/12 hour dark schedule with testing during the light portion of the cycle. The mice were tested for motor impairment by use of the inverted screen test approximately 5 minutes prior to anticonvulsant testing. […] Mice were placed on 13×13 cm pieces of #4 wire mesh screen which were mounted horizontally. The screens were then slowly inverted. […] PG-Tween is a 1:1 mixture of propylene glycol and Tween 80. […] There were 10 mice in each treatment group.

For `O=C(O)c1cn2c(CP(=O)(O)O)cccc2n1` [Example 7, 5-(phosphonomethyl)imidazo[1,2-a]pyridine-2-carboxylic acid], the Ki [1] was 3.2 µM, the “# of Neurons/Field” value ([2]; 300 mg/kg, control 32.8, P < 0.05) was 53.0 and the “# of Neurons/Field” value ([2]; 500 mg/kg, control 17.0, p < 0.0001) was 112.6. The cell loss ([2]; vs control, Mann-Whitney U test) was “significantly reduced”, the “Exhibiting Motor Impairments (% of Mice)” value ([3]; 10 mg/kg s.c.) was 30% and the “Exhibiting Motor Impairments (% of Mice)” value ([3]; 32 mg/kg s.c.) was 50%. The “Exhibiting Motor Impairments (% of Mice)” value ([3]; 56 mg/kg s.c.) was 70%, the “Exhibiting Motor Impairments (% of Mice)” value ([3]; 100 mg/kg s.c.) was 90% and the TD50 at 0.5 h ([3]; mouse, inverted screen test, sc) was 24.6 mg/kg. For the same compound, the “impaired motor function (in words)” value ([3]; s.c.) was “impaired motor function in a similar dose range”.
